In US20240093236A1, “RAPID HIGH THROUGHPUT SCREENING SYSTEM TO ASSESS POTENTIAL TREATMENTS FOR SPORADIC ALZHEIMER’S DISEASE” (Trustees of Tufts College, priority 2021, published 2024):
“Also recorded” adds a separate entry of the source. Counter-ions that a name gives are not always drawn.

Assays:
HSV-1 = HSV-1 infection of hiNSCs with VCV treatment (HSV immunostaining, qPCR for HSV-UL29); format: cell-based, herpes simplex virus type 1
Procedure: (§1) hiNSC colonies were trypsinized off of MEF feeder layers using TrypLE (Invitrogen) and then dissociated by manual pipetting. Cell suspensions were passaged through a 40- to […] cell strainer to remove larger aggregates. Dissociated hiNSCs were cultured on gelatin-coated plates in neurobasal media supplemented with 2% B27 (Invitrogen), 1% glutamax, and 1% antibiotic-antimycotic. For HSV infection, we used purified HSV-1 to directly infect hiNSCs at a range of MOIs (0.00001 to 1), which was calculated based on the starting virus concentration (2×10^7 PFU/ml) and initial seeding density.
(§2) Once added to media, inoculum was allowed to remain in cell cultures for the duration of the experiment to mimic low-level brain infection. For mock infections, an equal volume of control culture medium from uninfected Vero cells was used. All virus work was approved by the Tufts Institutional Biosafety Committee. Valacyclovir (VCV) HCl was reconstituted in dH2O and used at a concentration of 200 μM for all subsequent experiments. […]
(§3) Total RNA was isolated using the RNeasy Mini Kit (Qiagen). […] Quantitative reverse transcription PCR (qRT-PCR) was performed using SYBR Green and the CFX96 Real-Time PCR Detection System (Bio-Rad) and normalized against the housekeeping gene glyceraldehyde phosphate dehydrogenase. […]

HSV-1-infected hiNSCs [1] = assay: Aβ+ plaque-like formations (PLFs) in HSV-1-infected hiNSCs, immunostaining; format: cell-based, human; settings: 200 μM VCV, MOI 0.0001, HCl
Procedure: as §1
(§4) Once added to media, inoculum was allowed to remain in cell cultures for the duration of the experiment to mimic low-level brain infection. For mock infections, an equal volume of control culture medium from uninfected Vero cells was used. All virus work was approved by the Tufts Institutional Biosafety Committee. Valacyclovir (VCV) HCl was reconstituted in dH2O and used at a concentration of 200 μM for all subsequent experiments. VCV was added at day 0 (D0; concurrently with HSV-1 infection) or day 1 (D1; 24 hours after infection).
Cells grown in tissue culture plates or in 3D scaffolds were fixed in 4% paraformaldehyde and washed with 1×phosphate-buffered saline (PBS). Samples were incubated with a blocking buffer consisting of PBS, 10% goat serum, and 0.1% Triton X-100. […]

[2] = test system: APP, BACE1, PSEN1, and PSEN2; assay: qPCR expression of AD mediators (APP, BACE1, PSEN1, PSEN2) in HSV-1-infected hiNSCs; format: cell-based, human; settings: HSV-1 MOI 0.0001
Procedure: as §1, §2, §3

HSV-1-infected hiNSCs [3] = assay: Gliosis and neuroinflammation (GFAP, TNFα) in HSV-1-infected hiNSCs, immunostaining and qPCR; format: cell-based, human
Procedure: as §1, §2, §3

hiNSCs [4] = assay: Conditioned media (CM) experiment: reactive glia formation in new hiNSCs, TUJ1 and GFAP immunostaining; format: cell-based, human; settings: VCV in virus CM with fresh HSV-1; new hiNSCs cultured for 4 days
Procedure: Cells grown in tissue culture plates or in 3D scaffolds were fixed in 4% paraformaldehyde and washed with 1×phosphate-buffered saline (PBS). Samples were incubated with a blocking buffer consisting of PBS, 10% goat serum, and 0.1% Triton X-100. Primary antibodies were added to the blocking buffer and incubated with samples overnight at 4° C. The next day, samples were washed several times with PBS and incubated with a corresponding fluorescently conjugated secondary antibody in a blocking buffer for 1 hour at room temperature. Nuclei were counterstained with 4′,6-diamidino-2-phenylindole (Invitrogen).
Moreover, we aimed to understand whether HSV-1-secreted factors could cause gliosis even in the absence of infection (FIG. 7). CM were harvested and filtered from mock- or HSV-1-infected hiNSCs that had been cultured for 2 days. Fresh HSV-1 virus was added to CM in the absence or presence of antiviral treatment VCV, and new hiNSCs were cultured for 4 days. β-III tubulin (TUJ1) and GFAP immunostaining was performed to visualize neurons and glia, respectively.

hiNSCs [5] = assay: VCV alone in the absence of virus on hiNSCs; format: cell-based, human; settings: 200 μM VCV alone, no virus (data not shown)
Procedure: as §4
One of the most commonly used antiviral agents for treating HSV-1 infections is VCV, which specifically targets viral DNA replication in infected cells. We cultured hiNSCs for 4 days before subjecting to either mock or HSV-1 infection (MOI 0.0001). […] We first immunostained against HSV and Aβ (FIG. 4A) to determine any differences in the rate of HSV-1 infection and PLF generation in response to drug treatment.

HSV-1-infected hiNSCs [6] = assay: Latency model of HSV-1 infection in hiNSCs (acute infection followed by antiviral treatment), qPCR; format: cell-based, human; settings: acute HSV-1 infection 24 hrs followed by antiviral treatment (latency induction)
Source text: A) Schematic of timeline of HSV-1 and antiviral treatments to induce latency. Acute infection of hiNSCs with HSV-1 for 24 hrs. followed by antiviral treatment results in similar expression patterns of typical AD markers as described previously (B-D). E) This treatment also results in quantifiable expression of HSV-1 latency associated transcript (LAT).
HSV-1 typically lies latent in the peripheral nervous system indefinitely, and it is only upon reactivation that this virus can exert its detrimental effects such as cold sores and potentially neurodegeneration. Understanding potential triggers of this viral reactivation are crucial in elucidating downstream pathways involved in disease pathogenesis. There are currently few if any suitable in vitro models of HSV-1 latency. Here, we describe a method with which to induce latency of HSV-1 in vitro. […] Induction of latency with valacyclovir was also associated with an increase in glial fibrillary acidic protein (GFAP) expression (FIG. 21D), which is indicative of gliosis.

With `CC(C)[C@H](N)C(=O)OCCOCn1cnc2c(=O)[nH]c(N)nc21` [VCV, Valacyclovir HCl] as the compound, how does the HSV-1 infection (HSV-1; 200 μM VCV at D0 (concurrently with HSV-1 infection), MOI 0.0001) read?
The HSV-1 infection was “almost completely abolished infection”.

What about the “HSV-1 infection (immunostaining and qPCR for HSV-UL29)” value (HSV-1; 200 μM VCV, both drug regimens (D0 or D1), HSV-1 MOI 0.0001, hiNSCs, HCl) of the same compound?
Its value is “significant decrease; also recorded: reduces HSV-1 infection”.

What about the “average number of PLFs” value (HSV-1-infected hiNSCs [1]) of the same compound?
The value was “significantly reduced; also recorded: decrease”.

What about the “average size (area) of PLFs” value (HSV-1-infected hiNSCs [1]) of the same compound?
The value was “significantly reduced; also recorded: decrease”.

And the “expression of AD mediators APP, BACE1, PSEN1 and PSEN2 (qPCR)” value ([2]; 200 μM VCV at D0)?
Its value is “nearly rescued all markers back to control values”.

And the “expression of AD mediators APP, BACE1, PSEN1 and PSEN2 (qPCR)” value ([2]; 200 μM VCV at D1 (24 hours after infection))?
The value was “partial rescue”.

And the “GFAP expression (immunostaining and qPCR)” value (HSV-1-infected hiNSCs [3]; 200 μM VCV at D0)?
The value was “almost completely restored”.

And the “pro-inflammatory mediator TNFα” value (HSV-1-infected hiNSCs [3]; 200 μM VCV, both D0 and D1 dosing regimens)?
Its value is “significantly reduced”.

And the reactive glia formation (hiNSCs [4])?
Its reactive glia formation is “increased reactive glia formation”.

What about the “effect on hiNSCs in the absence of virus” value (hiNSCs [5]) of the same compound?
Its value is “no discernible effect”.

And the “HSV-1 latency associated transcript (LAT)” value (HSV-1-infected hiNSCs [6])?
The value was “significant increase”.

What about the PSEN2 expression (HSV-1-infected hiNSCs [6]) of the same compound?
The PSEN2 expression was “significant increase”.

What about the “glial fibrillary acidic protein (GFAP) expression” value (HSV-1-infected hiNSCs [6]) of the same compound?
The value was “increase”.
